Test results taken from patent US20090203010A1, “MSMB-gene based diagnosis, staging and prognosis of prostate cancer” (Katholieke Universiteit Leuven, K.U. Leuven R&D, priority 2008, published 2009).

Experiments:
Format in all cases: cell-based, Human
[1] = test system: CpG island in the promoter region of the MSMB gene; experiment: DNA bisulfite sequencing of the MSMB CpG island in PC-3 cells; conditions: following addition of the DNA methyltransferase inhibitor
Protocol: (a) PC-3 cells were treated for 48 hours with […] of the DNA methyltransferase inhibitor […]. Subsequently, the steady-state levels of the MSMB and EZH2 transcripts were determined by quantitative RT-PCR analysis with intron-spanning primers specific for the indicated genes. The data were expressed relative to the transcript level in the control condition. HPRT was used as a control for normalization. (b) A schematic representation of the MSMB gene on scale. The four exons are indicated by the black boxes and the two analyzed CpG regions by black stars. TSS, transcriptional start site. Methylated CG dinucleotides are denoted underneath by closed circles and unmethylated CGs by open circles. Genomic DNA of PC-3 cells or LNCaP cells was purified with the GenElute Mammalian Genomic DNA Miniprep kit of Sigma. Two microgram was digested overnight with BglII. The DNA was denatured with 0.3 M NaOH at […] for 30 minutes. Sodium bisulfite (3.3 M) and hydroquinone (0.5 mM) were added to the DNA and the mixture was incubated overnight at 55° C.
The DNA was purified with the PCR purification kit of Sigma, St Louis, Mo., USA. The DNA was desulfonated with […] for 15 minutes at 37° C. and precipitated by adding NH4Ac and ethanol. The pellet was air-dried and dissolved in 10 mM Tris and 1 mM ethylene-diaminete-traacetic acid at pH 8. […]

MSMB gene = experiment: Quantitative RT-PCR of the MSMB transcript level in PC-3 cells
Protocol: (a) The relative amounts of EZH2 (left panel) and MSMB transcripts (right panel) in the indicated prostate cell lines were determined by quantitative RT-PCR with intron-spanning primers. Human prostate PC-3 cells (adenocarcinoma), LNCaP cells (carcinoma) and DU 145 cells (carcinoma) were cultured as monolayers in 50% Dulbecco's modified Eagle's medium (DMEM) and 50% Ham's F12, RPMI1640 and DMEM, respectively, supplemented with 10% fetal calf serum. PZ-HPV-7 cells, an immortalized cell line derived from normal human prostate cells, were cultured in keratinocyte-serum free medium supplemented with 5 ng/ml human recombinant epidermal growth factor and 0.05 mg/ml bovine pituitary extract. Total RNA was isolated using the Genelute Mammalian Total RNA Miniprep kit (Sigma, St. Louis, Mo., USA). A total of […] RNA was reverse-transcribed with oligo dT primer (Sigma) and the M-MulV reverse transcriptase (Fermentas GMBH, St. Leon-Rot, Germany). cDNA (1.5%) was analyzed by real-time PCR in triplicate using a Platinum SYBR Green qPCR SuperMix-UDG (Invitrogen, Paisly, UK) in a Rotorgene detection system (Corbett Research, Cambridge, UK) and normalized to the housekeeping gene hypoxanthine-guanine-phosphoribosyl-transferase (HPRT). […] The DNA was recovered with the Genelute PCR clean-up kit (Sigma) and analyzed by real-time PCR. […] The enrichment of DNA was calculated using the formula:fold enrichment=^2(CtlgG-CtAb), where Ct is the threshold cycle, IgG is the normal rabbit IgG and Ab is the specific antibody.
FIG. 2 concerns how EZH2 is recruited to the MSMB gene and causes trimethylation of H3K27. […] (b) Immunoblotting (upper panel) and quantitative RT-PCR analysis (lower panel) of PC-3 cell lysates, obtained after transfection with either a control siRNA (Ctr), that is, a scrambled version of a siRNA duplex for the housekeeping gene PPP1R8 ([…] (SEQ ID NO:71), Invitrogen) or an EZH2 siRNA (KD; […] (SEQ ID NO:72), Dharmacon, Chicago, Ill., USA). […] SIPP1 served as a loading control for the immunoblotting and ACTIN was used as control for normalization in the quantitative RT-PCR. […]

EZH2 = experiment: Quantitative RT-PCR of the EZH2 transcript level in PC-3 cells
Protocol: (§1) (a) The relative amounts of EZH2 (left panel) and MSMB transcripts (right panel) in the indicated prostate cell lines were determined by quantitative RT-PCR with intron-spanning primers. Human prostate PC-3 cells (adenocarcinoma), LNCaP cells (carcinoma) and DU 145 cells (carcinoma) were cultured as monolayers in 50% Dulbecco's modified Eagle's medium (DMEM) and 50% Ham's F12, RPMI1640 and DMEM, respectively, supplemented with 10% fetal calf serum. PZ-HPV-7 cells, an immortalized cell line derived from normal human prostate cells, were cultured in keratinocyte-serum free medium supplemented with 5 ng/ml human recombinant epidermal growth factor and 0.05 mg/ml bovine pituitary extract. […] A total of 1-5 mg RNA was reverse-transcribed with oligo dT primer (Sigma) and the M-MulV reverse transcriptase (Fermentas GMBH, St. Leon-Rot, Germany). cDNA (1.5%) was analyzed by real-time PCR in triplicate using a Platinum SYBR Green qPCR SuperMix-UDG (Invitrogen, Paisly, UK) in a Rotorgene detection system (Corbett Research, Cambridge, UK) and normalized to the housekeeping gene hypoxanthine-guanine-phosphoribosyl-transferase (HPRT). […] The DNA was recovered with the Genelute PCR clean-up kit (Sigma) and analyzed by real-time PCR. […]
(§2) FIG. 2 concerns how EZH2 is recruited to the MSMB gene and causes trimethylation of H3K27. […] The enrichment on MSMB is expressed as a %±s.e. of the control value (n=3-4). […]

[2] = test system: H3K27 trimethylation of the MSMB gene; experiment: ChIP with anti-H3K27me3 antibodies on the MSMB gene in PC-3 cells; conditions: 48 hours after siRNA transfection
Protocol: as §1, §2

PPP1R8 = experiment: Quantitative RT-PCR of the housekeeping gene PPP1R8 transcript in PC-3 cells; conditions: siRNA transfection 48 hours
Protocol: FIG. 2 concerns how EZH2 is recruited to the MSMB gene and causes trimethylation of H3K27. (a) ChIP assays were performed in PC-3 cells using rabbit antibodies against a synthetic peptide of human EZH2 (E. Viré et al. (2006), Nature 439:871-874), trimethylated H3K27 (Upstate), trimethylated H3K9 (Upstate) and control IgGs. […] (b) Immunoblotting (upper panel) and quantitative RT-PCR analysis (lower panel) of PC-3 cell lysates, obtained after transfection with either a control siRNA (Ctr), that is, a scrambled version of a siRNA duplex for the housekeeping gene PPP1R8 ([…] (SEQ ID NO:71), Invitrogen) or an EZH2 siRNA (KD; […] (SEQ ID NO:72), Dharmacon, Chicago, Ill., USA). The PC-3 cells were plated at 1.2×10^6 cells in a 10 cm plate. At 24 hours after plating, the cells were transfected with 300 nM of siRNA duplex using Lipofectamine 2000 (Invitrogen). At 48 hours after transfection, the cells were harvested. SIPP1 served as a loading control for the immunoblotting and ACTIN was used as control for normalization in the quantitative RT-PCR. […] The immunoprecipitated DNA was analyzed by quantitative PCR using primers specific for the MSMB gene (FIG. 1, Panel b). The enrichment on MSMB is expressed as a %±s.e. of the control value (n=3-4). […]

[3] = test system: EZH2 association with the MSMB gene; experiment: ChIP with anti-EZH2 antibodies on the MSMB gene in PC-3 cells; conditions: 48 hours, loss only evident in intron 1 (primer sets 3 and 4)
Protocol: as §1, §2

For Nc1ncn([C@@H]2O[C@H](CO)[C@@H](O)[C@H]2O)c(=O)n1 [50-azacytidine], the “methylation of the CpG island in the promoter region (upstream CpG island) of the MSMB gene” value [1] was “decreased”, the “methylation of the CpG island in the promoter region (upstream CpG island) of the MSMB gene” value ([1]; listed as 5′ azacytidine) was “decreased methylation” and the “reactivation of the MSMB gene” value (MSMB gene) was “reactivated”.
With CC(/C=C/C(=O)NO)=C\[C@@H](C)C(=O)c1ccc(N(C)C)cc1 [TSA, trichostatin A] the “expression level of EZH2” value (EZH2; TSA 50 ng/ml for nine hours) was “did not affect” and the “increase of the MSMB transcript level” value (MSMB gene; TSA 50 ng/ml for nine hours, relative to control condition) was “six”.
With “AAGACUCUGAAUGCAGUUGCU (SEQ ID NO:72) [EZH2 siRNA]” the “H3K27 trimethylation of the MSMB gene in intron 1 (ChIP)” value [2] was “loss of H3K27 trimethylation”, the “knockdown of the EZH2 transcript” value (EZH2; siRNA transfection 48 hours) was “about 70%” and the “transcript level of control housekeeping gene PPP1R8” value (PPP1R8) was “not affected”. The “increase in the expression of MSMB” value (MSMB gene; siRNA transfection 48 hours, relative to control siRNA) was “three” and the “EZH2 associated with the MSMB gene (ChIP)” value [3] was “less EZH2 was associated”.
